Patent US7118744B2, “Immunogenic compositions for induction of anti-tumor immunity” (Yeda Research and Development Co., Ltd., priority 1997, dated 2006)
Ends that are not written are not given here.

Legend:
Meth A Sarcoma Cells = test: Rejection of Meth A tumor challenge in immunized mice; assay type: in vivo; conditions: BALB/c mice immunized with 100 μg CDR-based peptide
Protocol: (a) The Meth A tumor is a transplantable 3-methylcholantrene-induced sarcoma of BALB/c origin (Old et al., 1962) that has three mutations in the p53 coding sequence (Arai et al., 1986). The cells were grown in DMEM containing 10% heat-inactivated fetal calf serum (FCS), and passaged through BALB/c mice to select for tumorogenicity. For challenge, mice were injected intradermally with 10^6 Meth A cells. […] Rejection was scored as the disappearance of the tumor mass within 20 days after tumor challenge.
To learn whether immunization with anti-p53 mAb might influence in vivo the development of a tumor bearing a mutated form of the p53 molecule, groups of BALB/c female mice were immunized as above with either mAb 240, mAb 246, mAb 421 or mAb 9E 10. The mice were challenged intradermally with 10^6 Meth A tumor cells 10 days after the boost. Non-immunized mice were also tested.
Immunization of BALB/c mice with peptides V–IX of Example 3 was carried out as described for the whole mAbs in Materials and Methods, section iv, using 100 μg of peptide, and then assayed for the development of anti-p53 antibodies.

p53 = test: Induction of anti-p53 antibodies in immunized mice, ELISA on wild type p53; assay type: in vivo, mouse; conditions: BALB/c mice immunized with 100 μg of peptide
Protocol: E Coli BL21 (DE3) cells transformed with the T7 expression vector containing regularly spliced mouse p53 cDNA were used to express wild type or mutant p53 as previously described (Shohat-Foord et at., 1991; Wolkowicz et al., 1995). For protein induction, IPTG at a final concentration of 0.4 mM was added when the cells had reached an O.D.600 of 0.8–1.0. Three hours after induction, the cells were harvested from a 200 ml culture by centrifugation, and the pellet was resuspended in 5 ml of ice-cold lysis buffer (20 mM Tris-HCl, pH: 7.4; 500 mM NaCl; 10% glycerol; 1 mM EDTA; 1 mM PMSF; 5 μg/ml leupeptine; 10 μg/ml aprotinin and 0.1% NP40). The lysate was subjected to sonication for 10 cycles of 15 s of sonication followed by 15 s of gentle swirling. The solicited sample was subjected to two cycles of freeze-thaw and then centrifuged for 10 min at 10.000× g. […]
[…] Antibodies were measured after booster immurdzation.
For the ELISA assay flat bottom maxi-sorb plates (Nunc, Roskilde, Denmark) were coated with 50 μl per well of mutant or wild type p53 at a concentration of 10 μg/ml. […] After washing, the plates were incubated with the substrate, p-nitrophenil phosphate disodium (Sigma) and read using an ELISA reader at 405 nm. Sera manifesting an O.D. reading, after substraction of the background, of 0.3 or greater, were scored as positive.

| Sequence | Incidence of Rejected Tumors (Meth A Sarcoma Cells) | incidence of mice developing IgG anti-p53 antibodies (ELISA assay) (p53) |
| --- | --- | --- |
| AVYYCARSGSRFDYWGEGTT [Peptide VIII, includes CDR3 of the heavy chain of mAb 248] | 4/5 |  |
| GDINPNNGYTIYNQKVKGKA [Peptide VII, includes CDR2 of the heavy chain of mAb 246] | 5/5 |  |
| GVYYCWQGTHSPLTFGAGTK [Peptide VI, includes CDR3 of the light chain of mAb 421] | 5/5 | 7/10 |
| VYFCQQSNSWPVHARGGGTK [Peptide IX, includes CDR3 of the light chain of mAb 248] | 4/5 |  |
| YYCQHIRELTRSEGGPS [Peptide V, includes CDR3 of the light chain of mAb 240] | 4/5 | 8/10 |
